Target: T1, adenosine 2A receptor (A2AR) (Mus musculus, UniProt Q60613)
T1 construct: gene Adora2a
Assay: inhibition of NECA ([…])-stimulated CREB phosphorylation in mouse CD8+ T cells, flow cytometry
Format: cell-based

T1 sequence (Q60613 whole entry): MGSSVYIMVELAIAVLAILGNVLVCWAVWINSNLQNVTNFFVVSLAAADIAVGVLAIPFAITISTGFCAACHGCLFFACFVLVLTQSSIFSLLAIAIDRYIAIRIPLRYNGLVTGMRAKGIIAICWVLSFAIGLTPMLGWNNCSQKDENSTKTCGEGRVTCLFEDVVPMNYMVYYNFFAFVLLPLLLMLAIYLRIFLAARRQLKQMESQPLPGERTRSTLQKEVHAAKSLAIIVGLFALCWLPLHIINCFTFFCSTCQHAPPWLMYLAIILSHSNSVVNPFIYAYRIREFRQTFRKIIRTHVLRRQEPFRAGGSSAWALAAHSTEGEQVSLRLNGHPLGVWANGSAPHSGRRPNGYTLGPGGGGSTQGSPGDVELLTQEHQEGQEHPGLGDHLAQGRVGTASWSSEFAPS

IC50: ~3 nM
Substance: DZD2269

— PMC7150468, “A2AR Antagonism with DZD2269 Augments Antitumor Efficacy of Irradiation in Murine Model” (Journal of Cancer, 2020)
